Laboratory results taken from patent US20180000085A1, “USE OF PICOLINAMIDE COMPOUNDS WITH FUNGICIDAL ACTIVITY” (DOW AGROSCIENCES LLC, priority 2014, published 2018).

What was measured:
Format in all cases: in vivo
Zymoseptoria tritici = test: Leaf blotch of wheat (SEPTTR) disease control on wheat seedlings; set-up: key to SEPTTR 1DP, HV activity at 100 ppm (% control rating) / SEPTTR 3DC, HV activity at 100 ppm (% control rating) / SEPTTR disease control, 1DP / SEPTTR disease control, 3DC / SEPTTR 1DP disease control rating, HV activity / SEPTTR 3DC disease control rating, HV activity / SEPTTR 3DC, LV activity at 125.1 g/H (% Control rating) / SEPTTR 1DP, LV activity at 125.1 g/H (% Control rating) / SEPTTR 1DP disease control rating, LV activity at 125.1 g/H / SEPTTR 3DC disease control rating, LV activity at 125.1 g/H / SEPTTR 3DC disease control rating, HV activity at 100 ppm / SEPTTR 1DP disease control rating, HV activity at 100 ppm / HV activity at 100 ppm SEPTTR 3DC (disease control rating) / HV activity at 100 ppm SEPTTR 1DP (disease control rating) / LV activity at 125.1 g/H SEPTTR 1DP (disease control rating) / LV activity at 125.1 g/H SEPTTR 3DC (disease control rating): A: > 80; B: ≤ 80; C: Not Tested; D: No Activity Observed in the Reported Assay; settings: for SEPTTR 1DP, LV activity at 125.1 g/H (% Control rating) / SEPTTR 3DC, LV activity at 125.1 g/H (% Control rating) / SEPTTR 1DP disease control rating, LV activity at 125.1 g/H / SEPTTR 3DC disease control rating, LV activity at 125.1 g/H: low volume application; for SEPTTR 1DP disease control rating, LV activity at 125.1 g/H: 1 day protectant; for SEPTTR 3DC disease control rating, LV activity at 125.1 g/H: 3 day curative
Puccinia triticina = test: Wheat brown rust (PUCCRT) disease control on wheat seedlings; settings: for PUCCRT 1DP, LV activity at 125.1 g/H (% Control rating) / PUCCRT 3DC, LV activity at 125.1 g/H (% Control rating) / PUCCRT 1DP disease control rating, LV activity at 125.1 g/H / PUCCRT 3DC disease control rating, LV activity at 125.1 g/H: low volume application; for PUCCRT 1DP disease control rating, LV activity at 125.1 g/H: 1 day protectant; for PUCCRT 3DC disease control rating, LV activity at 125.1 g/H: 3 day curative
Phakopsora pachyrhizi = test: Asian soybean rust (PHAKPA) disease control; set-up: key: A: > 80; B: ≤ 80; C: Not Tested; D: No Activity Observed in the Reported Assay; settings: 25 ppm; for PHAKPA disease control, 1DP: 1 Day Protectant; for PHAKPA disease control, 3DC: 3 Day Curative

SMILES	SEPTTR 1DP, LV activity at 125.1 g/H (% Control rating) (Zymoseptoria tritici; 1 Day Protectant)	SEPTTR 3DC, LV activity at 125.1 g/H (% Control rating) (Zymoseptoria tritici; 3 Day Curative)	PUCCRT 1DP, LV activity at 125.1 g/H (% Control rating) (Puccinia triticina; 1 Day Protectant)	PUCCRT 3DC, LV activity at 125.1 g/H (% Control rating) (Puccinia triticina; 3 Day Curative)	PHAKPA disease control, 1DP (Phakopsora pachyrhizi)	PHAKPA disease control, 3DC (Phakopsora pachyrhizi)	also measured
CCC(CC)[C@@H](Oc1cccc(F)c1)[C@H](C)OC(=O)[C@H](C)NC(=O)c1nccc(OC)c1OC(C)=O [Cmpd 597]	A (> 80)	A (> 80)	A (> 80)	A (> 80)	A (> 80)	B (≤ 80)	
COc1ccnc(C(=O)NC(C)C(=O)OC(C)(C)C(Oc2ccccc2)C(C)C)c1OCOC(C)=O (mixture of isomers) [Cmpd 904]					A (> 80)	B (≤ 80)	SEPTTR 1DP disease control rating, LV activity at 125.1 g/H (Zymoseptoria tritici): B (≤ 80); SEPTTR 3DC disease control rating, LV activity at 125.1 g/H (Zymoseptoria tritici): A (> 80); PUCCRT 1DP disease control rating, LV activity at 125.1 g/H (Puccinia triticina): A (> 80); PUCCRT 3DC disease control rating, LV activity at 125.1 g/H (Puccinia triticina): A (> 80)
COc1ccnc(C(=O)N[C@@H](C)C(=O)O[C@@H](C)[C@@H](OC)c2ccccc2)c1OCOC(C)=O [Cmpd 886]					B (≤ 80)	B (≤ 80)	SEPTTR 1DP disease control rating, LV activity at 125.1 g/H (Zymoseptoria tritici): D; SEPTTR 3DC disease control rating, LV activity at 125.1 g/H (Zymoseptoria tritici): A (> 80); PUCCRT 1DP disease control rating, LV activity at 125.1 g/H (Puccinia triticina): A (> 80); PUCCRT 3DC disease control rating, LV activity at 125.1 g/H (Puccinia triticina): A (> 80)
CC[C@@H](CCC(C)C)[C@H](Oc1ccccc1)[C@H](C)OC(=O)[C@H](C)NC(=O)c1nccc(OC)c1OCOC(C)=O [Cmpd 502]	A (> 80)	A (> 80)	A (> 80)	A (> 80)	A (> 80)	B (≤ 80)	
CCC(CC)[C@@H](Oc1ccc(Cl)cc1)[C@H](C)OC(=O)[C@H](C)NC(=O)c1nccc(OC)c1OCOC(C)=O [Cmpd 589]	A (> 80)	A (> 80)	A (> 80)	A (> 80)	A (> 80)	B (≤ 80)	
COc1ccnc(C(=O)N[C@@H](C)C(=O)O[C@@H](C)[C@H](Oc2cc(F)ccc2F)C(C)C)c1OCOC(C)=O [Cmpd 616]	B (≤ 80)	A (> 80)	A (> 80)	A (> 80)	A (> 80)	A (> 80)	
COc1ccnc(C(=O)N[C@@H](C)C(=O)O[C@@H](C)[C@H](Oc2cccc(Cl)c2)C2CCCC2)c1OCOC(C)=O [Cmpd 911, (S)-(1R,2S)-1-(3-chlorophenoxy)-1-cyclopentylpropan-2-yl-2-(3-(acetoxymethoxy)-4-methoxypicolinamido)propanoate]					A (> 80)	B (≤ 80)	SEPTTR 1DP disease control rating, LV activity at 125.1 g/H (Zymoseptoria tritici): A (> 80); SEPTTR 3DC disease control rating, LV activity at 125.1 g/H (Zymoseptoria tritici): A (> 80); PUCCRT 1DP disease control rating, LV activity at 125.1 g/H (Puccinia triticina): A (> 80); PUCCRT 3DC disease control rating, LV activity at 125.1 g/H (Puccinia triticina): A (> 80)
CCCO[C@H](c1ccccc1)[C@H](C)OC(=O)[C@H](C)NC(=O)c1nccc(OC)c1OC(C)=O [Cmpd 884]					A (> 80)	D	SEPTTR 1DP disease control rating, LV activity at 125.1 g/H (Zymoseptoria tritici): B (≤ 80); SEPTTR 3DC disease control rating, LV activity at 125.1 g/H (Zymoseptoria tritici): A (> 80); PUCCRT 1DP disease control rating, LV activity at 125.1 g/H (Puccinia triticina): A (> 80); PUCCRT 3DC disease control rating, LV activity at 125.1 g/H (Puccinia triticina): A (> 80)
CCC(CC)[C@@H](Oc1ccccc1Cl)[C@H](C)OC(=O)[C@H](C)NC(=O)c1nccc(OC)c1OCOC(C)=O [Cmpd 593]	A (> 80)	A (> 80)	A (> 80)	A (> 80)	A (> 80)	B (≤ 80)	
CCC(CC)[C@@H](OCC1CC1)[C@H](C)OC(=O)[C@H](C)NC(=O)c1nccc(OC)c1OCOC(C)=O [Cmpd 553]	B (≤ 80)	A (> 80)	A (> 80)	A (> 80)	A (> 80)	A (> 80)	
C=CC(OCCC)C(Oc1ccccc1)C(C)OC(=O)C(C)NC(=O)c1nccc(OC)c1OCOC(C)=O (stereo not shown) [Cmpd 455]					A (> 80)	B (≤ 80)	SEPTTR 1DP disease control rating, HV activity (Zymoseptoria tritici; HV application at 100 ppm, 1 Day Protectant, wheat leaf blotch): A (> 80); SEPTTR 3DC disease control rating, HV activity (Zymoseptoria tritici; HV application at 100 ppm, 3 Day Curative, wheat leaf blotch): A (> 80); SEPTTR 1DP disease control rating, LV activity (Zymoseptoria tritici; Low volume application at 125.1 g/H, 1 Day Protectant, wheat leaf blotch): A (> 80); SEPTTR 3DC disease control rating, LV activity (Zymoseptoria tritici; Low volume application at 125.1 g/H, 3 Day Curative, wheat leaf blotch): A (> 80); PUCCRT 1DP disease control rating, HV activity (Puccinia triticina; HV application at 100 ppm, 1 Day Protectant, wheat brown rust): A (> 80); PUCCRT 3DC disease control rating, HV activity (Puccinia triticina; HV application at 100 ppm, 3 Day Curative, wheat brown rust): A (> 80); PUCCRT 1DP disease control rating, LV activity (Puccinia triticina; Low volume application at 125.1 g/H, 1 Day Protectant, wheat brown rust): A (> 80); PUCCRT 3DC disease control rating, LV activity (Puccinia triticina; Low volume application at 125.1 g/H, 3 Day Curative, wheat brown rust): A (> 80)
CCC(CC)[C@@H](Oc1cc(F)cc(Cl)c1)[C@H](C)OC(=O)[C@H](C)NC(=O)c1nccc(OC)c1OCOC(C)=O [Cmpd 592]	A (> 80)	A (> 80)	A (> 80)	A (> 80)	A (> 80)	A (> 80)	
COCC[C@H](Cc1ccc(F)cc1)[C@@H](Oc1ccccc1)[C@H](C)OC(=O)[C@H](C)NC(=O)c1nccc(OC)c1OCOC(C)=O [Cmpd 498]	A (> 80)	A (> 80)	A (> 80)	A (> 80)	A (> 80)	B (≤ 80)	
COc1ccnc(C(=O)N[C@@H](C)C(=O)O[C@@H](C)[C@H](Oc2ccccc2Cl)c2ccccc2)c1OCOC(C)=O [Cmpd 639]	B (≤ 80)	A (> 80)	A (> 80)	A (> 80)	A (> 80)	B (≤ 80)	
